Assay results taken from patent publication US9078917B2, “Extract of Phaleria macrocarpa as an antineoplastic, anti-inflammatory and antiangiogenic agent” (PT. Dexa Medica, priority 2008, dated 2015).

How the values were obtained:
Assay type in all cases: cell-based
cPLA2 mRNA expression = assay: cPLA2 RT-PCR in serum-free MDA-MB-231 cells; conditions: TPA versus control, serum-free medium; FIG. 12
Procedure: (§1) MDA-MB-231 cells were cultured in supplemented medium, then the cells were incubated at 37° C., CO2 5%. MDA-MB-231 cells were cultured in 6-well plates. A day before treatment administration, medium was changed with serum-free medium for 24 hours. Treatment administration was done by administering various doses of Phaleria macrocarpa extract dissolved in organic solvent. RNA isolation was conducted using Trizol. The RNAs then were used in RT-PCR process using specific primer for each gene we used. RT-PCR reactions were performed in PCR machines with optimized conditions. RT-PCR products were analyzed using electrophoresis technique on agarose gel 2%, and quantified using Chemidoc.

VEGF-C mRNA expression = assay: VEGF-C RT-PCR in serum-free MDA-MB-231 cells; conditions: TPA versus control, serum-free medium; FIG. 13
Procedure: as §1

COX-1 mRNA expression = assay: COX-1 RT-PCR in serum-free MDA-MB-231 cells; conditions: TPA alone versus control; FIG. 11
Procedure: as §1

## CCCCCCCCCCCCCC(=O)O[C@@H]1[C@@H](C)[C@@]2(O)[C@@H](C=C(CO)C[C@]3(O)C(=O)C(C)=C[C@@H]23)[C@@H]2C(C)(C)[C@]12OC(C)=O [TPA]
cPLA2 mRNA expression
  cPLA2 mRNA expression: increase in cPLA2 mRNA expression significantly
VEGF-C mRNA expression
  VEGF-C gene in mRNA level: significant increase of VEGF-C gene
COX-1 mRNA expression
  mRNA expression of COX-1: did not show any significant differences compared to control
